According to patent US10328077B2 (CELGENE CORPORATION, priority 2016, dated 2019):
Read-outs that look alike come from different tables or passages of the source.

Tests used:
[1] = Pharmacokinetics after IV and oral dose, dogs; type: in vivo, Beagle dogs; conditions: dog, plasma
CYP1A2 mRNA = experiment: CYP induction in cryopreserved human hepatocytes, CYP1A2; type: in vitro ADME; conditions: 0.03 to 10 μM, up to 3 days
CYP2B6 mRNA = experiment: CYP induction in cryopreserved human hepatocytes, CYP2B6; type: in vitro ADME; conditions: 0.03 to 10 μM, up to 3 days
[2] = Exploratory toxicity study in mice; type: in vivo, CD-1 mice; conditions: for reduction in neutrophil counts: 60 mg/kg/dose QOD
Text: Additional animals were included for TK evaluation.

hERG potassium channel = hERG potassium channel (Homo sapiens (Human), UniProt Q12809); experiment: in vitro; conditions: HEK293 cells stably expressing hERG channels
[3] = tested on: ST18 and FREM2 gene expression in MKL-1 or MS-1 tumors; experiment: qRT-PCR of candidate PD biomarker genes in hMCC xenografts (dose-response); type: in vivo, mice; conditions: 1, 2.5, or 5 mg/kg PO BID×4.5, both models
Procedure: Female NSG mice bearing palpable hMCC MKL-1 and MS-1 tumors were randomized into four groups of three mice each. Three groups were orally administered Compund A as monotherapy at 1, 2.5, or 5 mg/kg on a twice daily dosing schedule for nine doses (BID×4.5). The fourth group was orally administered vehicle as a control on the BID schedule. Four hours after the last dosing, tumors were collected into RNAlater and stored frozen.
Total RNA was eluted in RNase-free water and analyzed by qRT-PCR.

[4] = Plasma protein binding, human
[5] = 4-week toxicity study with 4-week recovery in mice (incl. TK)
[6] = Beagle, male, single IV dose 1 mg
[7] = Beagle, male, single oral dose 1 mg base/kg
[8] = Beagle, male, single oral dose 3 mg base/kg
[9] = Beagle, male, single oral dose 6 mg base/kg
[10] = Day 1, 5 mg base/kg/dose oral, 5 days on/2 days off, F
[11] = Day 1, 5 mg base/kg/dose oral, 5 days on/2 days off, M
[12] = Day 1, 15 mg base/kg/dose oral, 5 days on/2 days off, M
[13] = Day 1, 25 mg base/kg/dose oral, QODx3/week, F
[14] = Day 1, 25 mg base/kg/dose oral, QODx3/week, M
[15] = Day 1, 45 mg base/kg/dose oral, 5 days on/2 days off, F
[16] = Day 1, 45 mg base/kg/dose oral, 5 days on/2 days off, M
[17] = Day 26, 5 mg base/kg/dose oral, 5 days on/2 days off, F
[18] = Day 26, 5 mg base/kg/dose oral, 5 days on/2 days off, M
[19] = Day 26, 15 mg base/kg/dose oral, 5 days on/2 days off, F
[20] = Day 26, 25 mg base/kg/dose oral, QODx3/week, F
[21] = Day 26, 25 mg base/kg/dose oral, QODx3/week, M
[22] = Day 26, 45 mg base/kg/dose oral, 5 days on/2 days off, F
[23] = Day 26, 45 mg base/kg/dose oral, 5 days on/2 days off, M

hERG potassium channel, sequence (Q12809 whole entry): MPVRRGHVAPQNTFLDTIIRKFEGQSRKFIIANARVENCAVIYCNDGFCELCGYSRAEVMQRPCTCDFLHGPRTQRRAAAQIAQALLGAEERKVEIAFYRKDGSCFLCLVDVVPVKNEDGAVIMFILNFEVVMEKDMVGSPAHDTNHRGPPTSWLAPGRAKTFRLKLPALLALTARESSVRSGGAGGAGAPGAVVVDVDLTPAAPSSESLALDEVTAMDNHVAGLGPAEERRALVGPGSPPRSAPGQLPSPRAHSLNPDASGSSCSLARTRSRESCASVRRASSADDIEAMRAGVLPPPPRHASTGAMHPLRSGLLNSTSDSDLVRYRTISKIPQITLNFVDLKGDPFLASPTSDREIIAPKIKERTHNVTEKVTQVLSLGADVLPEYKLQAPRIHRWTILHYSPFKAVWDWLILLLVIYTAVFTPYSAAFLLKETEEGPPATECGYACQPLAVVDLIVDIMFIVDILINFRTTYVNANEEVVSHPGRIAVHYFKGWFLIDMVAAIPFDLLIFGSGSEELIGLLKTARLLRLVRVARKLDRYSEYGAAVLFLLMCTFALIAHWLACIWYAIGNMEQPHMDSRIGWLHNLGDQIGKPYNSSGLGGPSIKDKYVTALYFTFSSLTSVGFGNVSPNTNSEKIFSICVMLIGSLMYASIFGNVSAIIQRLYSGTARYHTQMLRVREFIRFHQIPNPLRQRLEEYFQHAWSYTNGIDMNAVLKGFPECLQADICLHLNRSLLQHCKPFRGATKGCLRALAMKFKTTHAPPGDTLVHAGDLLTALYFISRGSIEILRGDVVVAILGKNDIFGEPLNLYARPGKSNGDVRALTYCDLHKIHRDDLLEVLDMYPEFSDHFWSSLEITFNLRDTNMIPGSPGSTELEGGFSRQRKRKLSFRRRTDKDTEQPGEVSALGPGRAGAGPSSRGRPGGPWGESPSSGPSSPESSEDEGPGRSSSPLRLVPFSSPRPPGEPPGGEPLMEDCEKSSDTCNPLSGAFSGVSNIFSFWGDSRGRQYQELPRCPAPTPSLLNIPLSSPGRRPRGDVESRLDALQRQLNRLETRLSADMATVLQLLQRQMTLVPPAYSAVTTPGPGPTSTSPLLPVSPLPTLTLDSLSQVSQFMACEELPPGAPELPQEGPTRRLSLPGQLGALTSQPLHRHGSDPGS

For `COc1ccc(-c2c(-c3ccc(C#N)c(F)c3)nc(N3CCC(N)CC3)n(C)c2=O)cc1F` [Compound A, 4-[2-(4-amino-piperidin-1-yl)-5-(3-fluoro-4-methoxy-phenyl)-1-methyl-6-oxo-1,6-dihydro-pyrimidin-4-yl]-2-fluoro-benzonitrile], the half-life ([1]; Beagle (dogs), IV, non-rodents (dogs, monkeys), read-out: half-life) was 12 to 20 h, the bioavailability ([1]; Beagle, po, dogs and monkeys, read-out: oral bioavailability) was 82 to 100% and the AUC(0-inf) [1, 6] was 1940 ng·h/mL. For the same compound, the AUC(0-t) [1, 6] was 1300 ng·h/mL, the clearance [1, 6] was 9 mL/min/kg and the Vd ([1]; Beagle, male, single IV dose 1 mg, mean (SD), read-out: Vss) was 11.1 L/kg. It also gave a half-life ([1]; Beagle, male, single IV dose 1 mg, read-out: t1/2, z (converted)) of 15.5 h, an AUC(0-t) [1, 7] of 1090 ng·h/mL and a Cmax [1, 7] of 69 ng/mL. The Tmax [1, 7] was 2 h, the bioavailability ([1]; Beagle, male, single oral dose 1 mg base/kg, read-out: % F) was 84% and the half-life ([1]; Beagle, male, single oral dose 1 mg base/kg, read-out: t1/2, z (converted)) was 15 h. The AUC(0-t) [1, 8] was 3790 ng·h/mL, the Cmax [1, 8] was 298 ng/mL and the Tmax [1, 8] was 1 h. The bioavailability ([1]; Beagle, male, single oral dose 3 mg base/kg, read-out: % F) was 100%, the half-life ([1]; Beagle, male, single oral dose 3 mg base/kg, read-out: t1/2, z (converted)) was 19.4 h and the AUC(0-t) [1, 9] was 8790 ng·h/mL. It also gave a Cmax [1, 9] of 627 ng/mL, a Tmax [1, 9] of 1 h and a bioavailability ([1]; Beagle, male, single oral dose 6 mg base/kg, read-out: % F) of 100%. The half-life ([1]; Beagle, male, single oral dose 6 mg base/kg, read-out: t1/2, z (converted)) was 17.8 h, the “increase in CYP1A2 mRNA over vehicle control” value (CYP1A2 mRNA) was < 2 fold and the “increase in CYP2B6 mRNA over vehicle control” value (CYP2B6 mRNA) was < 2 fold. The “increase in platelets on Day 8” value ([2]; 10 mg/kg/day 5 days on/2 days off, vs end of first dosing period) was > 2 fold, the “reduction in neutrophil counts” value ([2]; females) was 66% and the “reduction in neutrophil counts” value ([2]; males) was 83%. For the same compound, the increased spleen weights ([2]; 30 or 60 mg/kg/dose 5 days on/2 days off) was “up to 2 fold”, the “greatest reduction in neutrophil counts” value ([2]; 5 days on/2 days off schedule, vs concurrent controls and pre-study values) was “approximately 90%” and the circulating platelets ([2]; all dose levels, end of study) was “reduced”. The inhibition at 0.3 µM (hERG potassium channel) was 5.9 ± 1.3%, the inhibition at 1 µM (hERG potassium channel) was 17.8 ± 0.3% and the inhibition at 3 µM (hERG potassium channel) was 47 ± 1.9%. The inhibition at 10 µM (hERG potassium channel) was 77.3 ± 0.2%, the “ST18 and FREM2 change in gene expression in vivo” value [3] was ≥ 2 fold and the “bound to plasma proteins” value [4] was 83%. It also gave an AUC0-24 [5, 10] of 1500 ng·h/mL, a Cmax [5, 10] of 201 ng/mL and an AUC0-24 [5, 11] of 2270 ng·h/mL. It also gave a Cmax [5, 11] of 230 ng/mL, an AUC0-24 [5, 12] of 13000 ng·h/mL and a Cmax [5, 12] of 1020 ng/mL. It also gave an AUC0-24 [5, 13] of 20300 ng·h/mL, a Cmax [5, 13] of 1830 ng/mL and an AUC0-24 [5, 14] of 21900 ng·h/mL. It also gave a Cmax [5, 14] of 1530 ng/mL, an AUC0-24 [5, 15] of 36300 ng·h/mL and a Cmax [5, 15] of 3570 ng/mL. For the same compound, the AUC0-24 [5, 16] was 35200 ng·h/mL, the Cmax [5, 16] was 3130 ng/mL and the AUC0-24 [5, 17] was 2410 ng·h/mL. The Cmax [5, 17] was 276 ng/mL, the AUC0-24 [5, 18] was 2010 ng·h/mL and the Cmax [5, 18] was 276 ng/mL. It also gave an AUC0-24 [5, 19] of 8640 ng·h/mL, a Cmax [5, 19] of 769 ng/mL and an AUC0-24 [5, 20] of 17500 ng·h/mL. The Cmax [5, 20] was 1740 ng/mL, the AUC0-24 [5, 21] was 17800 ng·h/mL and the Cmax [5, 21] was 1450 ng/mL. The AUC0-24 [5, 22] was 26500 ng·h/mL, the Cmax [5, 22] was 2130 ng/mL and the AUC0-24 [5, 23] was 29000 ng·h/mL. The Cmax [5, 23] was 2620 ng/mL, the NOAEL ([5]; QD×5/week schedule) was 5 mg base/kg/dose and the STD10 ([5]; QD×5/week schedule) was > 45 mg base/kg/dose. For the same compound, the STD10 ([5]; QOD×3 weekly schedule) was > 25 mg base/kg/dose.
